# From patent US11590139B2, “Substituted aminopurine compounds, compositions thereof, and methods of treatment therewith” (Signal Pharmaceuticals, LLC, priority 2014, dated 2023)
# Read-outs that look alike come from different tables or passages of the source.
# Tested on: Lox-IMVI melanoma cell line
# Test: Lox-IMVI anti-proliferative assay (growth inhibition, Cell Titer-Glo)
# Assay type: cell-based, human
# Details: Lox-IMVI melanoma cell line, anti-proliferative assay, read-out: Activity (IC50 activity level)
# Procedure, shortened: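 First, compound was dispensed as a 10-point 3-fold series (0.5 nM–10 μM, duplicate). Then cells in RPMI + 10% FBS were added and grown 72 h at 37 °C with 0.2% DMSO. Finally, ATP luminescence was read and IC50 calculated versus DMSO control.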
IC50 (Homo sapiens) [nM],IC50 [nM],SMILES
< 250,,"C[C@]1(C(N)=O)CC[C@@H](n2c(Nc3c(F)cc(Cl)cc3Cl)nc3cnc(N[C@@H]4CC[C@@H](O)C4)nc32)CC1 [Example 637, (1S,4s)-4-(8-(2,4-dichloro-6-fluorophenylamino)-2-((1R,3R)-3-hydroxycyclopentylamino)-9H-purin-9-yl)-1-methylcyclohexanecarboxamide]"
< 250,,"C[C@]1(C(N)=O)CC[C@@H](n2c(Nc3c(Cl)cc(F)cc3Cl)nc3cnc(N[C@@H]4CC[C@@H](O)C4)nc32)CC1 [Example 638, (1S,4s)-4-(8-(2,6-dichloro-4-fluorophenylamino)-2-((1R,3R)-3-hydroxycyclopentylamino)-9H-purin-9-yl)-1-methylcyclohexanecarboxamide]"
< 250,,"C[C@]1(C(N)=O)CC[C@@H](n2c(Nc3c(F)cc(Cl)cc3F)nc3cnc(N[C@@H]4CC[C@@H](O)C4)nc32)CC1 [Example 639, (1S,4s)-4-(8-(4-chloro-2,6-difluorophenylamino)-2-((1R,3R)-3-hydroxycyclopentylamino)-9H-purin-9-yl)-1-methylcyclohexanecarboxamide]"
< 250,,"C[C@]1(C(N)=O)CC[C@@H](n2c(Nc3c(F)cc(C#N)cc3Cl)nc3cnc(N[C@@H]4CC[C@@H](O)C4)nc32)CC1 [Example 640, (1S,4s)-4-(8-(2-chloro-4-cyano-6-fluorophenylamino)-2-((1R,3R)-3-hydroxycyclopentylamino)-9H-purin-9-yl)-1-methylcyclohexanecarboxamide]"
< 250,,"C[C@]1(C(N)=O)CC[C@@H](n2c(Nc3c(Cl)cc(C#N)cc3Cl)nc3cnc(N[C@@H]4CC[C@@H](O)C4)nc32)CC1 [Example 641, (1S,4s)-4-(8-(2,6-dichloro-4-cyanophenylamino)-2-((1R,3R)-3-hydroxycyclopentylamino)-9H-purin-9-yl)-1-methylcyclohexanecarboxamide]"
,> 1000,"C[C@]1(C(N)=O)CC[C@@H](n2c(Nc3c(F)cc(C#N)cc3F)nc3cnc(N[C@@H]4CCC[C@@H](O)C4)nc32)CC1 [Example 642, (1S,4s)-4-(8-(4-cyano-2,6-difluorophenylamino)-2-((1R,3R)-3-hydroxycyclohexylamino)-9H-purin-9-yl)-1-methylcyclohexanecarboxamide]"
500 to 1000,,"C[C@]1(C(N)=O)CC[C@@H](n2c(Nc3c(F)cc(F)cc3F)nc3cnc(N[C@H]4CC[C@H](O)C4)nc32)CC1 [Example 643, (1R,4s)-4-(2-((1S,3S)-3-hydroxycyclopentylamino)-8-(2,4,6-trifluorophenylamino)-9H-purin-9-yl)-1-methylcyclohexanecarboxamide]"
250 to 500,,"C[C@]1(C(N)=O)CC[C@@H](n2c(Nc3c(F)cc(F)cc3Cl)nc3cnc(N[C@H]4CC[C@H](O)C4)nc32)CC1 [Example 644, (1R,4s)-4-(8-(2-chloro-4,6-difluorophenylamino)-2-((1S,3S)-3-hydroxycyclopentylamino)-9H-purin-9-yl)-1-methylcyclohexanecarboxamide]"
500 to 1000,,"C[C@]1(C(N)=O)CC[C@@H](n2c(Nc3c(Cl)cc(Cl)cc3Cl)nc3cnc(N[C@H]4CC[C@H](O)C4)nc32)CC1 [Example 645, (1R,4s)-4-(2-((1S,3S)-3-hydroxycyclopentylamino)-8-(2,4,6-trichlorophenylamino)-9H-purin-9-yl)-1-methylcyclohexanecarboxamide]"
250 to 500,,"C[C@]1(C(N)=O)CC[C@@H](n2c(Nc3c(F)cc(Cl)cc3Cl)nc3cnc(N[C@H]4CC[C@H](O)C4)nc32)CC1 [Example 646, (1R,4s)-4-(8-(2,4-dichloro-6-fluorophenylamino)-2-((1S,3S)-3-hydroxycyclopentylamino)-9H-purin-9-yl)-1-methylcyclohexanecarboxamide]"
500 to 1000,,"C[C@]1(C(N)=O)CC[C@@H](n2c(Nc3c(Cl)cc(F)cc3Cl)nc3cnc(N[C@H]4CC[C@H](O)C4)nc32)CC1 [Example 647, (1R,4s)-4-(8-(2,6-dichloro-4-fluorophenylamino)-2-((1S,3S)-3-hydroxycyclopentylamino)-9H-purin-9-yl)-1-methylcyclohexanecarboxamide]"
> 1000,,"C[C@]1(C(N)=O)CC[C@@H](n2c(Nc3c(F)cc(Cl)cc3F)nc3cnc(N[C@H]4CC[C@H](O)C4)nc32)CC1 [Example 648, (1R,4s)-4-(8-(4-chloro-2,6-difluorophenylamino)-2-((1S,3S)-3-hydroxycyclopentylamino)-9H-purin-9-yl)-1-methylcyclohexanecarboxamide]"
250 to 500,,"C[C@]1(C(N)=O)CC[C@@H](n2c(Nc3c(F)cc(C#N)cc3Cl)nc3cnc(N[C@H]4CC[C@H](O)C4)nc32)CC1 [Example 649, (1R,4s)-4-(8-(2-chloro-4-cyano-6-fluorophenylamino)-2-((1S,3S)-3-hydroxycyclopentylamino)-9H-purin-9-yl)-1-methylcyclohexanecarboxamide]"
250 to 500,,"C[C@]1(C(N)=O)CC[C@@H](n2c(Nc3c(Cl)cc(C#N)cc3Cl)nc3cnc(N[C@H]4CC[C@H](O)C4)nc32)CC1 [Example 650, (1R,4s)-4-(8-(2,6-dichloro-4-cyanophenylamino)-2-((1S,3S)-3-hydroxycyclopentylamino)-9H-purin-9-yl)-1-methylcyclohexanecarboxamide]"
< 250,,"C[C@]1(C(N)=O)CC[C@@H](n2c(Nc3c(F)cc(Cl)cc3Cl)nc3cnc(NC4CC(F)(F)C4)nc32)CC1 [Example 651, (1s,4s)-4-(8-(2,4-dichloro-6-fluorophenylamino)-2-(3,3-difluorocyclobutylamino)-9H-purin-9-yl)-1-methylcyclohexanecarboxamide]"
> 1000,,"NC(=O)[C@H]1CC[C@@H](n2c(Nc3c(F)cc(F)cc3F)nc3cnc(NC[C@@H]4CCCC[C@@H]4O)nc32)CC1 [Example 652, (1R,4s)-4-(2-(((1S,2S)-2-hydroxycyclohexyl)methylamino)-8-(2,4,6-trifluorophenylamino)-9H-purin-9-yl)cyclohexanecarboxamide]"
> 1000,,"NC(=O)[C@H]1CC[C@@H](n2c(Nc3c(F)cc(F)cc3Cl)nc3cnc(NC[C@@H]4CCCC[C@@H]4O)nc32)CC1 [Example 653, (1R,4s)-4-(8-(2-chloro-4,6-difluorophenylamino)-2-(((1S,2S)-2-hydroxycyclohexyl)methylamino)-9H-purin-9-yl)cyclohexanecarboxamide]"
> 1000,,"NC(=O)[C@H]1CC[C@@H](n2c(Nc3c(Cl)cc(Cl)cc3Cl)nc3cnc(NC[C@@H]4CCCC[C@@H]4O)nc32)CC1 [Example 654, (1R,4s)-4-(2-(((1S,2S)-2-hydroxycyclohexyl)methylamino)-8-(2,4,6-trichlorophenylamino)-9H-purin-9-yl)cyclohexanecarboxamide]"
> 1000,,"NC(=O)[C@H]1CC[C@@H](n2c(Nc3c(F)cc(Cl)cc3Cl)nc3cnc(NC[C@@H]4CCCC[C@@H]4O)nc32)CC1 [Example 655, (1R,4s)-4-(8-(2,4-dichloro-6-fluorophenylamino)-2-(((1S,2S)-2-hydroxycyclohexyl)methylamino)-9H-purin-9-yl)cyclohexanecarboxamide]"
> 1000,,"NC(=O)[C@H]1CC[C@@H](n2c(Nc3c(Cl)cc(F)cc3Cl)nc3cnc(NC[C@@H]4CCCC[C@@H]4O)nc32)CC1 [Example 656, (1R,4s)-4-(8-(2,6-dichloro-4-fluorophenylamino)-2-(((1S,2S)-2-hydroxycyclohexyl)methylamino)-9H-purin-9-yl)cyclohexanecarboxamide]"
> 1000,,"NC(=O)[C@H]1CC[C@@H](n2c(Nc3c(F)cc(Cl)cc3F)nc3cnc(NC[C@@H]4CCCC[C@@H]4O)nc32)CC1 [Example 657, (1R,4s)-4-(8-(4-chloro-2,6-difluorophenylamino)-2-(((1S,2S)-2-hydroxycyclohexyl)methylamino)-9H-purin-9-yl)cyclohexanecarboxamide]"
> 1000,,"N#Cc1cc(F)c(Nc2nc3cnc(NC[C@@H]4CCCC[C@@H]4O)nc3n2[C@H]2CC[C@@H](C(N)=O)CC2)c(Cl)c1 [Example 658, (1R,4s)-4-(8-(2-chloro-4-cyano-6-fluorophenylamino)-2-(((1S,2S)-2-hydroxycyclohexyl)methylamino)-9H-purin-9-yl)cyclohexanecarboxamide]"
> 1000,,"N#Cc1cc(Cl)c(Nc2nc3cnc(NC[C@@H]4CCCC[C@@H]4O)nc3n2[C@H]2CC[C@@H](C(N)=O)CC2)c(Cl)c1 [Example 659, (1R,4s)-4-(8-(2,6-dichloro-4-cyanophenylamino)-2-(((1S,2S)-2-hydroxycyclohexyl)methylamino)-9H-purin-9-yl)cyclohexanecarboxamide]"
> 1000,,"NC(=O)[C@H]1CC[C@@H](n2c(Nc3c(F)cc(F)cc3Cl)nc3cnc(NC[C@@H]4CCCC[C@H]4O)nc32)CC1 [Example 660, (1R,4s)-4-(8-(2-chloro-4,6-difluorophenylamino)-2-(((1S,2R)-2-hydroxycyclohexyl)methylamino)-9H-purin-9-yl)cyclohexanecarboxamide]"
> 1000,,"NC(=O)[C@H]1CC[C@@H](n2c(Nc3c(Cl)cc(Cl)cc3Cl)nc3cnc(NC[C@@H]4CCCC[C@H]4O)nc32)CC1 [Example 661, (1R,4s)-4-(2-(((1S,2R)-2-hydroxycyclohexyl)methylamino)-8-(2,4,6-trichlorophenylamino)-9H-purin-9-yl)cyclohexanecarboxamide]"
> 1000,,"NC(=O)[C@H]1CC[C@@H](n2c(Nc3c(F)cc(Cl)cc3Cl)nc3cnc(NC[C@@H]4CCCC[C@H]4O)nc32)CC1 [Example 662, (1R,4s)-4-(8-(2,4-dichloro-6-fluorophenylamino)-2-(((1S,2R)-2-hydroxycyclohexyl)methylamino)-9H-purin-9-yl)cyclohexanecarboxamide]"
> 1000,,"NC(=O)[C@H]1CC[C@@H](n2c(Nc3c(F)cc(Cl)cc3F)nc3cnc(NC[C@@H]4CCCC[C@H]4O)nc32)CC1 [Example 663, (1R,4s)-4-(8-(4-chloro-2,6-difluorophenylamino)-2-(((1S,2R)-2-hydroxycyclohexyl)methylamino)-9H-purin-9-yl)cyclohexanecarboxamide]"
